Literature values as cited in US20090208616A1, “INTERVENTION TECHNIQUES FOR REDUCING CARCASS CONTAMINATION” (priority 2000, published 2009).
Like-named read-outs stand apart in the source and are kept apart here.

System: Giardia Cysts

## NCl [Chloramine]
pH range 6 to 9, 5 ° C.
  CT value for 0.5-log inactivation of Giardia cysts by chloramine: 365 mg/L-min
  CT value for 1-log inactivation of Giardia cysts by chloramine: 735 mg/L-min
  CT value for 1.5-log inactivation of Giardia cysts by chloramine: 1100 mg/L-min
  CT value for 2-log inactivation of Giardia cysts by chloramine: 1470 mg/L-min
  CT value for 2.5-log inactivation of Giardia cysts by chloramine: 1830 mg/L-min
  CT value for 3-log inactivation of Giardia cysts by chloramine: 2200 mg/L-min
pH range 6 to 9, 10 ° C.
  CT value for 0.5-log inactivation of Giardia cysts by chloramine: 310 mg/L-min
  CT value for 1-log inactivation of Giardia cysts by chloramine: 615 mg/L-min
  CT value for 1.5-log inactivation of Giardia cysts by chloramine: 930 mg/L-min
  CT value for 2-log inactivation of Giardia cysts by chloramine: 1230 mg/L-min
  CT value for 2.5-log inactivation of Giardia cysts by chloramine: 1540 mg/L-min
  CT value for 3-log inactivation of Giardia cysts by chloramine: 1850 mg/L-min
pH range 6 to 9, 15 ° C.
  CT value for 0.5-log inactivation of Giardia cysts by chloramine: 250 mg/L-min
  CT value for 1-log inactivation of Giardia cysts by chloramine: 500 mg/L-min
  CT value for 1.5-log inactivation of Giardia cysts by chloramine: 750 mg/L-min
  CT value for 2-log inactivation of Giardia cysts by chloramine: 1000 mg/L-min
  CT value for 2.5-log inactivation of Giardia cysts by chloramine: 1250 mg/L-min
  CT value for 3-log inactivation of Giardia cysts by chloramine: 1500 mg/L-min
pH range 6 to 9, 20 ° C.
  CT value for 0.5-log inactivation of Giardia cysts by chloramine: 185 mg/L-min
  CT value for 1-log inactivation of Giardia cysts by chloramine: 370 mg/L-min
  CT value for 1.5-log inactivation of Giardia cysts by chloramine: 550 mg/L-min
  CT value for 2-log inactivation of Giardia cysts by chloramine: 735 mg/L-min
  CT value for 2.5-log inactivation of Giardia cysts by chloramine: 915 mg/L-min
  CT value for 3-log inactivation of Giardia cysts by chloramine: 1100 mg/L-min
pH range 6 to 9, 25 ° C.
  CT value for 0.5-log inactivation of Giardia cysts by chloramine: 125 mg/L-min
  CT value for 1-log inactivation of Giardia cysts by chloramine: 250 mg/L-min
  CT value for 1.5-log inactivation of Giardia cysts by chloramine: 375 mg/L-min
  CT value for 2-log inactivation of Giardia cysts by chloramine: 500 mg/L-min
  CT value for 2.5-log inactivation of Giardia cysts by chloramine: 625 mg/L-min
  CT value for 3-log inactivation of Giardia cysts by chloramine: 750 mg/L-min
pH range 6 to 9, ≦1 ° C.
  CT value for 0.5-log inactivation of Giardia cysts by chloramine: 635 mg/L-min
  CT value for 1-log inactivation of Giardia cysts by chloramine: 1270 mg/L-min
  CT value for 1.5-log inactivation of Giardia cysts by chloramine: 1900 mg/L-min
  CT value for 2-log inactivation of Giardia cysts by chloramine: 2535 mg/L-min
  CT value for 2.5-log inactivation of Giardia cysts by chloramine: 3170 mg/L-min
  CT value for 3-log inactivation of Giardia cysts by chloramine: 3800 mg/L-min
